{"source": "patent US20250295646A1", "about": "“METHODS OF USE OF T-TYPE CALCIUM CHANNEL MODULATORS” (Praxis Precision Medicines, Inc., priority 2022, published 2025)", "test_system": "adult patients with essential tremor", "assay": "Example 16: video-reviewed TETRAS performance subscale and upper limb score; as to TETRAS Performance Subscale Total Score by Video Review, Change from Baseline, Mean (SD): test concentration or dose not given here; as to TETRAS Performance Subscale Total Score by Video Review, Change from Baseline, Median: test concentration or dose not given here; as to TETRAS Performance Subscale Total Score by Video Review, Mean (SD): test concentration or dose not given here; as to TETRAS Performance Subscale Total Score by Video Review, Median: test concentration or dose not given here", "format": "in vivo, human", "excerpt": "Video-reviewed TETRAS Analyses Video reviewed TETRAS assessments were generally consistent with those conducted at the clinic. Video reviewed TETRAS performance subscale total scores are summarized for Part A, the open-label titration phase of Part B, and the randomized withdrawal phase of Part B in Table 42, Table 43, and Table 44.\nVideo reviewed upper limb score values were generally consistent with those conducted at the clinic and are summarized for Part A, the open-label titration phase of Part B, and the randomized withdrawal phase of Part B in Table 45, Table 46, and Table 47, respectively.", "key": {"[1]": {"settings": "Day 7, Part B Open-Label Titration Phase (N = 17)"}, "[2]": {"settings": "Day 7, Part B, Formula (I) arm (N = 6)"}, "[3]": {"settings": "Day 21, Part B Open-Label Titration Phase (N = 17)"}}}
{"smiles": "CC(C)(C)NC(=O)CN1CCC(CNC(=O)c2cc(F)cc(Cl)c2)CC1", "note": "[compound of formula (I), N-((1-(2-(tert-butylamino)-2-oxoethyl)piperidin-4-yl)methyl)-3-chloro-5-fluorobenzamide]", "values": [{"measurement": "TETRAS Performance Subscale Total Score by Video Review, Percentage Change from Baseline in Tremor Amplitude, Mean (SD)", "setting": "[1]", "value": "−13.83 (27.204) %"}, {"measurement": "TETRAS Performance Subscale Total Score by Video Review, Percentage Change from Baseline in Tremor Amplitude, Median", "setting": "[1]", "value": "−22.26", "unit": "%"}, {"measurement": "TETRAS Upper Limb Score by Video Review, Change from Baseline, Mean (SD)", "setting": "[1]", "value": "−1.15 (1.916)"}, {"measurement": "TETRAS Upper Limb Score by Video Review, Change from Baseline, Median", "setting": "[1]", "value": "−1.50"}, {"measurement": "TETRAS Upper Limb Score by Video Review, Mean (SD)", "setting": "[1]", "value": "8.75 (2.880)"}, {"measurement": "TETRAS Upper Limb Score by Video Review, Median", "setting": "[1]", "value": 8.50}, {"measurement": "TETRAS Upper Limb Score by Video Review, Percentage Change from Baseline in Tremor Amplitude, Mean (SD)", "setting": "[1]", "value": "−17.86 (27.226) %"}, {"measurement": "TETRAS Upper Limb Score by Video Review, Percentage Change from Baseline in Tremor Amplitude, Median", "setting": "[1]", "value": "−25.01", "unit": "%"}, {"measurement": "TETRAS Performance Subscale Total Score by Video Review, Change from Baseline, Mean (SD)", "setting": "[2]", "value": "−2.00 (2.291)"}, {"measurement": "TETRAS Performance Subscale Total Score by Video Review, Change from Baseline, Median", "setting": "[2]", "value": "−1.50"}, {"measurement": "TETRAS Performance Subscale Total Score by Video Review, Mean (SD)", "setting": "[2]", "value": "20.33 (2.754)"}, {"measurement": "TETRAS Performance Subscale Total Score by Video Review, Median", "setting": "[2]", "value": 20.50}, {"measurement": "TETRAS Performance Subscale Total Score by Video Review, Percentage Change from Baseline in Tremor Amplitude, Mean (SD)", "setting": "[2]", "value": "−12.63 (13.986) %"}, {"measurement": "TETRAS Performance Subscale Total Score by Video Review, Percentage Change from Baseline in Tremor Amplitude, Median", "setting": "[2]", "value": "−10.23", "unit": "%"}, {"measurement": "TETRAS Upper Limb Score by Video Review, Change from Baseline, Mean (SD)", "setting": "[2]", "value": "−0.88 (1.031)"}, {"measurement": "TETRAS Upper Limb Score by Video Review, Change from Baseline, Median", "setting": "[2]", "value": "−1.00"}, {"measurement": "TETRAS Upper Limb Score by Video Review, Mean (SD)", "setting": "[2]", "value": "9.00 (0.913)"}, {"measurement": "TETRAS Upper Limb Score by Video Review, Median", "setting": "[2]", "value": 9.00}, {"measurement": "TETRAS Upper Limb Score by Video Review, Percentage Change from Baseline in Tremor Amplitude, Mean (SD)", "setting": "[2]", "value": "−14.41 (17.112) %"}, {"measurement": "TETRAS Upper Limb Score by Video Review, Percentage Change from Baseline in Tremor Amplitude, Median", "setting": "[2]", "value": "−17.46", "unit": "%"}, {"measurement": "TETRAS Performance Subscale Total Score by Video Review, Change from Baseline, Mean (SD)", "setting": "Day 14, Part A (N = 7)", "value": "−2.92 (2.654)"}, {"measurement": "TETRAS Performance Subscale Total Score by Video Review, Change from Baseline, Median", "setting": "Day 14, Part A (N = 7)", "value": "−3.00"}, {"measurement": "TETRAS Performance Subscale Total Score by Video Review, Mean (SD)", "setting": "Day 14, Part A (N = 7)", "value": "19.33 (2.380)"}, {"measurement": "TETRAS Performance Subscale Total Score by Video Review, Median", "setting": "Day 14, Part A (N = 7)", "value": 19.00}, {"measurement": "TETRAS Performance Subscale Total Score by Video Review, Percentage Change from Baseline in Tremor Amplitude, Mean (SD)", "setting": "Day 14, Part A (N = 7)", "value": "−17.69 (15.649) %"}, {"measurement": "TETRAS Performance Subscale Total Score by Video Review, Percentage Change from Baseline in Tremor Amplitude, Median", "setting": "Day 14, Part A (N = 7)", "value": "−19.21", "unit": "%"}, {"measurement": "TETRAS Upper Limb Score by Video Review, Change from Baseline, Mean (SD)", "setting": "Day 14, Part A (N = 7)", "value": "−1.33 (1.080)"}, {"measurement": "TETRAS Upper Limb Score by Video Review, Change from Baseline, Median", "setting": "Day 14, Part A (N = 7)", "value": "−1.50"}, {"measurement": "TETRAS Upper Limb Score by Video Review, Mean (SD)", "setting": "Day 14, Part A (N = 7)", "value": "8.75 (1.294)"}, {"measurement": "TETRAS Upper Limb Score by Video Review, Median", "setting": "Day 14, Part A (N = 7)", "value": 9.25}, {"measurement": "TETRAS Upper Limb Score by Video Review, Percentage Change from Baseline in Tremor Amplitude, Mean (SD)", "setting": "Day 14, Part A (N = 7)", "value": "−21.27 (17.102) %"}, {"measurement": "TETRAS Upper Limb Score by Video Review, Percentage Change from Baseline in Tremor Amplitude, Median", "setting": "Day 14, Part A (N = 7)", "value": "−24.67", "unit": "%"}, {"measurement": "TETRAS Performance Subscale Total Score by Video Review, Change from Baseline, Mean (SD)", "setting": "Day 21, Part A (N = 7)", "value": "−1.00 (3.146)"}, {"measurement": "TETRAS Performance Subscale Total Score by Video Review, Change from Baseline, Median", "setting": "Day 21, Part A (N = 7)", "value": "−0.75"}, {"measurement": "TETRAS Performance Subscale Total Score by Video Review, Mean (SD)", "setting": "Day 21, Part A (N = 7)", "value": "21.25 (2.734)"}, {"measurement": "TETRAS Performance Subscale Total Score by Video Review, Median", "setting": "Day 21, Part A (N = 7)", "value": 21.75}, {"measurement": "TETRAS Performance Subscale Total Score by Video Review, Percentage Change from Baseline in Tremor Amplitude, Mean (SD)", "setting": "Day 21, Part A (N = 7)", "value": "−5.84 (20.134) %"}, {"measurement": "TETRAS Performance Subscale Total Score by Video Review, Percentage Change from Baseline in Tremor Amplitude, Median", "setting": "Day 21, Part A (N = 7)", "value": "−4.59", "unit": "%"}, {"measurement": "TETRAS Upper Limb Score by Video Review, Change from Baseline, Mean (SD)", "setting": "Day 21, Part A (N = 7)", "value": "−0.67 (1.602)"}, {"measurement": "TETRAS Upper Limb Score by Video Review, Change from Baseline, Median", "setting": "Day 21, Part A (N = 7)", "value": "−0.25"}, {"measurement": "TETRAS Upper Limb Score by Video Review, Mean (SD)", "setting": "Day 21, Part A (N = 7)", "value": "9.42 (1.320)"}, {"measurement": "TETRAS Upper Limb Score by Video Review, Median", "setting": "Day 21, Part A (N = 7)", "value": 9.50}, {"measurement": "TETRAS Upper Limb Score by Video Review, Percentage Change from Baseline in Tremor Amplitude, Mean (SD)", "setting": "Day 21, Part A (N = 7)", "value": "−9.56 (25.141) %"}, {"measurement": "TETRAS Upper Limb Score by Video Review, Percentage Change from Baseline in Tremor Amplitude, Median", "setting": "Day 21, Part A (N = 7)", "value": "−4.16", "unit": "%"}, {"measurement": "TETRAS Performance Subscale Total Score by Video Review, Change from Baseline, Mean (SD)", "setting": "[3]", "value": "−0.96 (3.122)"}, {"measurement": "TETRAS Performance Subscale Total Score by Video Review, Change from Baseline, Median", "setting": "[3]", "value": "−1.00"}, {"measurement": "TETRAS Performance Subscale Total Score by Video Review, Mean (SD)", "setting": "[3]", "value": "21.67 (5.809)"}, {"measurement": "TETRAS Performance Subscale Total Score by Video Review, Median", "setting": "[3]", "value": 21.25}, {"measurement": "TETRAS Performance Subscale Total Score by Video Review, Percentage Change from Baseline in Tremor Amplitude, Mean (SD)", "setting": "[3]", "value": "−5.66 (18.983) %"}, {"measurement": "TETRAS Performance Subscale Total Score by Video Review, Percentage Change from Baseline in Tremor Amplitude, Median", "setting": "[3]", "value": "−6.88", "unit": "%"}, {"measurement": "TETRAS Upper Limb Score by Video Review, Change from Baseline, Mean (SD)", "setting": "[3]", "value": "−0.67 (1.628)"}, {"measurement": "TETRAS Upper Limb Score by Video Review, Change from Baseline, Median", "setting": "[3]", "value": "−0.50"}]}
